Assay results taken from patent US20240196889A1, “USE OF DI- AND TRI[…] ACIDS IN THE PREVENTION OF BIOFILM FORMATION” (priority 2020, published 2024).

What was measured:
[1] = test system: S. Typhimurium ATCC 14028; experiment: Microscopic analysis of fluorescently labelled biofilms; format: cell-based, Salmonella enterica serovar Typhimurium; conditions: 100 μM, 48 h
Protocol: ONCs of S. Typhimurium ATCC 14028 containing the pFPV25.1 plasmid encoding for constitutive GFPmut3 productions were normalized to an an OD595 of 3.2 and 20 μl was added to a glass bottom microwell dishes (35 mm Ø petri dish, 20 mm Ø microwell) containing 2 ml 1/20 TSB and 100 μg ml^−1 of ampicillin and a final concentration of 100 μM agaric or the corresponding amount of DMSO. Around 12*10^7 ml^−1 cells were inoculated and incubated under static conditions at 25° C. for 48 h. After incubation, the planktonic phase was gently poured off and the biofilm was washed with 1 ml PBS. Biofilms were visualized with […]

[2] = test system: S. Typhimurium ATCC 14028; experiment: Petri dish biofilm assay (CFU); format: cell-based, Salmonella enterica serovar Typhimurium; conditions: 100 μM, 48 h, 25° C.
Protocol: ONCs of S. Typhimurium ATCC 14028 were normalized to an OD595 of 3.2 and diluted 1/100 in a small (60 mm Ø) glass Petri dishes containing 10 ml of 1/20 TSB to which a final concentration of 100 μM agaric or the corresponding amount of DMSO was added. Around 12*10^7 ml^−1 cells were inoculated and incubated under static conditions at 25° C. for 48 h. Afterwards, the liquid above the biofilms was poured off and the biofilms were scraped off the bottom of the plate in 1 ml of PBS, passed through a syringe (25 G) and vortexed to break down the biofilm structure and ensure an homogenous suspension during dilution [Hermans et al. (2011). Journal of microbiological methods 84, 467-478]. The number of colony forming units (CFU) of biofilms was determined by plating.

Compound: CCCCCCCCCCCCCCCCC(C(=O)O)C(O)(CC(=O)O)C(=O)O (centres unmarked) [Agaric acid, 2-hydroxynonadecane-1,2,3-tricarboxylic acid]
- biofilm density by microscopy [1]: less dense compared to the control
- number of cells (CFU) attaching to bottom of glass petri dish [2]: significantly inhibits the number of Salmonella cells attaching to the surface
